In brackets after ≈: the same amount, converted by molar mass.
What was measured:
[1] = tested on: AGS; assay: Cytotoxicity against human AGS cells after 48 hrs by MTT assay; assay type: functional, cell-based
[2] = tested on: HCT-116; assay: Cytotoxicity against human HCT116 cells after 48 hrs by MTT assay; assay type: functional, cell-based; settings: HCT-116, 48 h
[3] = tested on: HeLa; assay: Cytotoxicity against human HeLa cells after 48 hrs by MTT assay; assay type: functional, cell-based
[4] = tested on: Radical scavenging activity; assay: Antioxidant activity assessed as DPPH radical scavenging activity; assay type: functional
[5] = Antioxidant activity assessed as hydroxyl radical scavenging activity after 15 mins by spectrophotometry; assay type: functional
[6] = Antioxidant activity assessed as superoxide anion radical scavenging activity after 90 seconds by formazan method; assay type: functional
[7] = Antioxidant activity assessed as ABTS radical scavenging activity after 30 mins by spectrophotometry; assay type: functional

| Compound | IC50 [4] [µg/mL] | IC50 [5] [µg/mL] | IC50 [6] [µg/mL] | IC50 [7] [µg/mL] | IC50 [1] [µM] | IC50 [2] [µM] | IC50 [3] [µM] |
| --- | --- | --- | --- | --- | --- | --- | --- |
| COc1cccc2c1C(=O)c1c(O)c3c(c(O)c1C2=O)C[C@@](O)(C(=O)CO)C[C@@H]3O[C@H]1C[C@H](N)[C@H](O)[C@H](C)O1 [DOXORUBICIN] |  |  |  |  | 10.9 | 8.7 | 6.3 |
| Cc1nc2c3ccccc3ccc2c2nc3c(ccc4ccccc43)c(-c3cccc4ccccc34)c12 | 26.1 (≈ 55.5 µM) | 64.3 (≈ 137 µM) | 179.3 (≈ 381 µM) | 110.5 (≈ 235 µM) | 12.1 | 20.8 | 14.9 |
| Cc1nc2c3ccccc3ccc2c2nc3c(ccc4ccccc43)c(-c3ccccc3)c12 | 31.3 (≈ 74.4 µM) | 84.6 (≈ 201 µM) | 188.1 (≈ 447 µM) | 164.3 (≈ 391 µM) | > 80 | > 80 | > 80 |
| Cc1nc2c3ccccc3ccc2c2nc3c(ccc4ccccc43)c(-c3cccc([N+](=O)[O-])c3)c12 | 33.3 (≈ 71.5 µM) | 54.2 (≈ 116 µM) | 157.3 (≈ 338 µM) | 116.8 (≈ 251 µM) | 25.5 | 13.2 | 50.7 |
| Cc1cc(Nc2cccc3ccccc23)c2ccc3ccccc3c2n1 | 18.2 (≈ 54.4 µM) | 62.3 (≈ 186 µM) | 186.2 (≈ 557 µM) | 115.2 (≈ 344 µM) | 4.01 | 5.61 | 3.45 |
| COc1ccc(O)c(C(C)(C)C)c1.COc1ccc(O)cc1C(C)(C)C [BUTYLATED HYDROXYANISOLE] | 9.7 | 75.7 | 79.6 | 96.8 |  |  |  |
| Cc1nc2c3ccccc3ccc2c2nc3c(ccc4ccccc43)c(-c3cc(O)nc4ccccc34)c12 | 14.1 (≈ 28.9 µM) | 44.8 (≈ 91.9 µM) | 147.7 (≈ 303 µM) | 92.1 (≈ 189 µM) | 15.8 | 4.63 | 4.88 |
| Cc1nc2c3ccccc3ccc2c2nc3c(ccc4ccccc43)c(C)c12 | 46.6 (≈ 130 µM) | 89.6 (≈ 250 µM) | 194.5 (≈ 543 µM) | 128.5 (≈ 358 µM) | > 80 | > 80 | > 80 |
| COc1ccc(-c2c3ccc4ccccc4c3nc3c2c(C)nc2c4ccccc4ccc32)cc1 | 27.5 (≈ 61 µM) | 82.3 (≈ 183 µM) | 176.4 (≈ 392 µM) | 132.5 (≈ 294 µM) | 66.4 | > 80 | 45.9 |
| Cc1ccc(-c2c3ccc4ccccc4c3nc3c2c(C)nc2c4ccccc4ccc32)cc1 | 24.5 (≈ 56.4 µM) | 68.7 (≈ 158 µM) | 191.5 (≈ 441 µM) | 123.3 (≈ 284 µM) | > 80 | 67 | 72.2 |
| Cc1nc2c3ccccc3ccc2c2nc3c(ccc4ccccc43)c(-c3ccc(O)cc3)c12 | 10.4 (≈ 23.8 µM) | 44.1 (≈ 101 µM) | 99 (≈ 227 µM) | 86.4 (≈ 198 µM) | 14.2 | 3.19 | 4.63 |

The next lines start with results.

| IC50 [4] [µg/mL] | IC50 [5] [µg/mL] | IC50 [6] [µg/mL] | IC50 [7] [µg/mL] | Compound | IC50 [1] [µM] | IC50 [2] [µM] | IC50 [3] [µM] |
| --- | --- | --- | --- | --- | --- | --- | --- |
| 10.2 (≈ 22.5 µM) | 49.6 (≈ 110 µM) | 158.3 (≈ 350 µM) | 89 (≈ 197 µM) | Cc1nc2c3ccccc3ccc2c2nc3c(ccc4ccccc43)c(-c3ccccc3S)c12 | 4.07 | 1.42 | 3.19 |
| 16.9 (≈ 40.1 µM) | 63.6 (≈ 151 µM) | 156.1 (≈ 370 µM) | 98.2 (≈ 233 µM) | Cc1nc2c3ccccc3ccc2c2nc3c(ccc4ccccc43)c(-c3cccnc3)c12 | 3.96 | 34.2 | 3.86 |
| 43 (≈ 94.5 µM) | 74.6 (≈ 164 µM) | 170 (≈ 374 µM) | 118.1 (≈ 260 µM) | Cc1nc2c3ccccc3ccc2c2nc3c(ccc4ccccc43)c(-c3ccccc3Cl)c12 | 52.5 | 48.2 | > 80 |
| 11.3 (≈ 23.5 µM) | 43.3 (≈ 90.1 µM) | 110.1 (≈ 229 µM) | 93.1 (≈ 194 µM) | Cc1nc2c3ccccc3ccc2c2nc3c(ccc4ccccc43)c(-c3cc([N+](=O)[O-])ccc3N)c12 | 17.8 | 6.01 | 5.77 |
| 12 (≈ 27.4 µM) | 47.8 (≈ 109 µM) | 133.9 (≈ 306 µM) | 81.7 (≈ 187 µM) | Cc1nc2c3ccccc3ccc2c2nc3c(ccc4ccccc43)c(-c3nccnc3N)c12 | 2.26 | 3.56 | 1.21 |
| 17.5 (≈ 40.2 µM) | 45.6 (≈ 105 µM) | 124.6 (≈ 286 µM) | 95.4 (≈ 219 µM) | Cc1nc2c3ccccc3ccc2c2nc3c(ccc4ccccc43)c(-c3ccccc3N)c12 | 12.1 | 4.76 | 16.2 |
